{"source": "patent US20060105013A1", "about": "“Osteopontin-coated surfaces and methods of use” (priority 2000, published 2006)", "key": {"[1]": {"system": "Haundel/Labrador dogs", "experiment": "In vivo histology of bone healing around rhOPN coated Ti implants in dogs", "set-up": "species or system dog", "conditions": "hollow screw Ti implants, dogs sacrificed after 4 and 8 weeks; vs uncoated", "description": "Forty implants (5 per quadrant) were placed in four Haundel/Labrador dogs after extraction of four premolars (PM1-PM4) and one molar (M1), and a three month healing period. Eight hollow screw Ti implants were coated with rhOPN. Eight uncoated implants served as controls. The remaining implants were coated with 3 additional different molecules denoted as study 2, study 3, and study 4.\nPrior to implant placement, core samples from the donor place were taken to histologically analyze bone quality after extractions. This procedure, also ensured a hollow space for bone ingrowth inside the coated and uncoated implants. Dogs were sacrificed after 4 and 8 weeks.\nImplants were recovered for histological analysis. Each implant was sectioned vertically. The core inside the hallow implant was removed using liquid nitrogen. Decalcified sections were embedded in paraffin and stained using Herovichi's techniques to differentiate immature from mature collagen. Light microscopy at 4× and 40× magnifications were used to compare histological differences between rhOPN coated implants and uncoated implants.\nUncoated implants show normal bone healing characterized by granulation tissue and a few areas of vascularization and matrix deposition after four weeks."}, "[2]": {"system": "HOS cells", "experiment": "Extracellular matrix mineralization (calcium content) of HOS cells on coated Ti disks", "assay_type": "cell-based, human", "conditions": "ascorbate and β-glycerol phosphate, uncoated did not mineralize", "experimental": "HOS cells were grown either on coated or uncoated titanium disks. Media was supplemented with ascorbate and b-glycerol phosphate to stimulate the mineralization of the extracellular matrix. After two weeks, media was removed and the cells were lysed with triton. Then, all soluble components were removed and calcium content was determined using quantitative, calorimetric determination at […] (Sigma Diagnostics Calcium). Basically, calcium reacts with o-cresolphthalein, a chromogenic agent that in an alkaline medium forms a purple colored complex. The intensity of the color, measured at […], is directly proportional to calcium concentration in the sample.\nHOS cells were grown either on coated or uncoated titanium disks. Media was supplemented with ascorbate and β-glycerol phosphate. After two weeks, media was removed and the cells were lysed. Then, all soluble components were removed and calcium content was determined using quantitative, colorimetric determination at 575 nm (Sigma Diagnostics Calcium). All measurements were done in triplicates and reported as mean±Standard error in the mean.\nWhen cultured in the presence of ascorbate and β-glycerol phosphate, HOS cells grown on coated Ti disks mineralized their extracellular matrix within 2 weeks (FIG. 5) in a manner similar to HOS cells cultured on plastic. […]"}, "[3]": {"system": "HOS cells", "experiment": "Attachment of HOS cells to Ti disks coated with rhOPN", "assay_type": "cell-based, human", "conditions": "Ti disks coated with 50 μg of rhOPN; after 30 min; vs uncoated", "experimental": "HOS cells were labeled overnight with 10 uCi ^3H-thymidine, then dissociated from the plate with non-enzymatic dissociation solution (Sigma), washed 2 times with PBS, and counted. ^3H-thymidine incorporated into TCA insoluble material was determined for the cells. 5000 cells (cpm total 1000) were plated onto coated or uncoated titanium disks and the disks incubated at 37° C. for 30 min. Unadhered cells were removed, and attached cells were washed 3 times with 0.5 ml PBS. The cells were lysed with ice cold 20% TCA and the radioactivity in the TCA insoluble fraction was determined using the Scintillation counter (Begman 5000).\n5000 cells (total cpm 1000) were plated on either coated or uncoated Ti disks and incubated at 37° C. in a humidified atmosphere (95% air 5% CO2). After 30 min, unattached cells were removed and the disks were washed with PBS. The total number of attached cells was determined for the total cpm released for the disks after the cells were lysed with 10% TCA and solubilized in 5 ml scintillation fluid. All measurements were done in triplicates and graphed as mean±Standard error of the mean.\nThe initial events following seeding of cells onto Ti surfaces include the attachment, migration and proliferation of the seeded cells. Coating Ti disks with 50 μg of rhOPN enhanced by 1100% the attachment of HOS cells to Ti disks (FIG. 2), after 30 min."}, "[4]": {"system": "HOS cells", "experiment": "Attachment of HOS cells to plastic, glass or chromocobalt surfaces coated with OPN", "assay_type": "cell-based, human", "conditions": "1 hour", "experimental": "500 cells were plated on coated plastic, glass or chromocobalt surfaces and incubated at 37° C. in a humidified atmosphere (95% air 5% CO2). Surfaces were coated with either human recombinant phosphorylated OPN (rhOPN) or unphosphorylated OPN. Fibronectin coated surfaces were used as a control. After 1 hour, unattached cells were removed and the surfaces were washed with PBS. The total number of attached cells was determined for the total cpm released for the surfaces after the cells were lysed with 10% TCA and solubilized in 5 ml scintillation fluid. All measurements were done in triplicates."}, "[5]": {"system": "HOS cells", "experiment": "Proliferation of HOS cells on plastic, glass or CrCo surfaces coated with rhOPN", "assay_type": "cell-based, human", "experimental": "(§1) Cell proliferation was determined by the rate of ^3H-Thymidine incorporation into DNA. Cells labeled with ^3H-Thymidine were seeded for 6 hours, then lysed with TCA. The TCA insoluble material was collected and resuspended in 0.5 N NaOH. ^3H-thymidine incorporation into TCA insoluble material was used as an index for cell proliferation. Rate of proliferation is expressed as cpm/1000 cells/6 h. All measurements were done in triplicates.\nSince rhOPN promoted cell attachment to different surfaces, it was of interest to examine whether the protein had any effect on the proliferation of HOS grown on these surfaces."}, "[6]": {"system": "HOS cells", "experiment": "Proliferation of HOS cells on Ti disks coated with rhOPN (3H-thymidine incorporation)", "assay_type": "cell-based, human", "experimental": "Cell proliferation was determined by the rate of ^3H-Thymidine incorporation into DNA. Cells were labeled with 10 μCi/ml of ^3H-Thymidine in DME media. After 6 hours, the cells were lysed in cold 10% trichloroacetic acid (TCA). The TCA insoluble material was collected and washed several times with 10% TCA, then resuspended in 0.5 N NaOH. ^3H-thymidine incorporation into TCA insoluble material was used as an index of cell proliferation. The material collected was mixed with scintillation liquid (Begman). The amount of radiation generated was compared between cells grown in titanium disks uncoated, and titanium disks coated with OPN.\nas §1, with “h. Control group: 254,54, rhOPN group: 560,83.” for “h.”, “triplicates and reported as mean±Standard error for the mean.” for “triplicates.”\nSince rhOPN promoted cell attachment to Ti disks, it was of interest to examine whether the protein had any effect on the proliferation of HOS grown on Ti disks."}}, "data": [{"substance": "rhOPN: human recombinant phosphorylated form of osteopontin", "values": [{"measurement": "bone healing around implants (histology)", "setting": "[1]", "value": "enhanced bone healing"}, {"measurement": "time within which HOS cells mineralized their extracellular matrix", "setting": "[2]", "value": "≤ 2", "unit": "weeks"}, {"measurement": "enhancement of attachment of HOS cells to Ti disks", "setting": "[3]", "value": 1100, "unit": "%"}, {"measurement": "% total attached", "setting": "[4]; Plastic surface", "value": 90.8, "unit": "%"}, {"measurement": "% total attached", "setting": "[4]; chromocobalt (CrCo) surface", "value": 69.2, "unit": "%"}, {"measurement": "% total attached", "setting": "[4]; glass surface", "value": 98.1, "unit": "%"}, {"measurement": "Proliferation Rate", "setting": "[5]; CrCo", "value": 1740, "unit": "Cpm/6 h/1000 cells"}, {"measurement": "Proliferation Rate", "setting": "[5]; Glass", "value": 2740, "unit": "Cpm/6 h/1000 cells"}, {"measurement": "Proliferation Rate", "setting": "[5]; Plastic", "value": 3300, "unit": "Cpm/6 h/1000 cells"}, {"measurement": "proliferation rate relative to cells grown on uncoated surfaces", "setting": "[5]; glass, plastic and chromocobalt surfaces", "value": "at least twice"}, {"measurement": "Rate of proliferation", "setting": "[6]", "value": "560,83 cpm/1000 cells/6 h"}, {"measurement": "proliferation rate relative to cells grown on uncoated Ti disks", "setting": "[6]", "value": "approximately twice"}]}]}
